Where “and” joins values, the source holds several entries; their conditions need not be identical. Identical values can stand only once. Starred links: 1 amine or outer side, 2 acyl side, 3 side chain; linkers in the order of their positions; H or OH if unused. Positions of bridges follow the written chain, without caps; N, C: chain ends. Non-standard residues stand in square brackets, D forms with d. Residues, ends and D or L forms follow the SMILES beside them. Trp(2-yl) = O=C([C@H](Cc1c([*:3])[nH]c2ccccc12)N[*:1])[*:2]; Ile(4R-OH,5-OH) = C[C@H]([C@H](N)C(=O)O)[C@@H](O)CO; X5 = COC(=O)N[C@@H]1C[C@@H](C(=O)[*:2])N([*:1])C1

These results are taken from patent publication US20240082416A1, “AMATOXIN ANALOGS AND USES THEREOF” (THE UNIVERSITY OF BRITISH COLUMBIA, priority 2020, published 2024).

A short description of data set [1]: Viability assay against CHO cells (MTT colorimetric assay). It is filed as cell-based, Chinese hamster. The conditions noted are these: Chinese hamster, CHO cells, 72 h, replicates n = 1, 2, 3, read-out: % viable cells. The method, then: (§1) (f) Cell culture: Cells were cultured in Minimum Essential Medium Eagle—Alpha Modification (α-MEM) or […] Dulbecco's Modified Eagle Medium (DMEM), purchased from Gibco. […] All cell culture plastic ware was obtained from Coming or Falcon. Cells were cultured at 37° C. in a humidified chamber with 5% CO2. When used in cell culture, DMSO was purified by filtration through a […] filter. All experiments were carried out in a laminar flow culture cabinet, unless otherwise noted.
(§2) Immortalized CHO cells had been stored in liquid nitrogen. To revive cells, a 1-mL tube of the frozen cells in medium containing 10% DMSO was warmed in a 30° C. water bath and diluted with 9 mL of fresh media. Media contained 10% FBS and 100 U/mL penicillin and […] streptomycin, unless otherwise indicated. The cells were incubated in a T-25 flask at 37° C. at 5% CO2. After 24 hours, the medium was aspirated and replaced with fresh medium. When cells reached a level of 90-100% confluence, they were sub-cultured. […] Once the cells were detached from the tissue culture flask, 3-5 mL media was added to quench the trypsin and the mixture was transferred to a 10 mL centrifuge tube. The mixture was centrifuged for 5 min at […], and the supernatant was discarded. The cells were suspended in fresh medium, diluted as required, and transferred to a new culture flask.
(§3) To assay cell viability, a nearly confluent tissue culture flask was trypsinized, and the cells were counted following treatment with Trypan blue, using a hemocytometer. The cells were then diluted to the appropriate stock concentrations in fresh medium and transferred in 100 μL to a 96-well plate using a multi-channel pipette. The number of cells plated varied from experiment to experiment. These were incubated at 37° C. and 5% CO2 for a 24-hour period to allow for adherence. The medium was aspirated, and fresh medium was added, which contained the desired additives in DMSO. The cells were then re-incubated for 72 h. At the completion of the experiment, a 100 μL aliquot of 25 mg/mL MTT in phosphate-buffered saline (PBS) was added to each well. The plate was incubated three hours further to allow for the formation of the formazan product in viable cells. The media was carefully aspirated, and the purple product was solubilized in DMSO. […] Data was processed in Microsoft Excel and GraphPad Prism. Experiments were performed in triplicates unless otherwise noted, and the error bars were calculated as the standard error of the mean.
(§4) Each cell line was plated in a 96-well plate, with 100 μL of the stock solution per well (5000 cells per well) and incubated for 24 hours. […] The cells were incubated for 72 hours, at which point viability was assessed as described.

A further data set has as its system CHO cells. The description is as above. Type of data set: cell-based, Chinese hamster. As to conditions: 72 h, replicates n = 1, 2, 3, listed as MeOCOHN-Pro-amanitin (32). The method, then:
as §1, §2, §3, §4

`CC[C@H](C)[C@@H]1NC(=O)CNC(=O)[C@@H]2Cc3c([nH]c4ccccc34)SC[C@H](NC(=O)CNC1=O)C(=O)N[C@@H](CC(N)=O)C(=O)N1C[C@H](NC(=O)OC)C[C@H]1C(=O)N[C@@H]([C@@H](C)[C@@H](O)CO)C(=O)N2` [Compound 32, MeOCONH-Pro-amanitin] (cyclo(CN[X5][Ile(4R-OH,5-OH)][Trp(2-yl)]GIG); thioether 1-5): the viability at 72 h, 1e-05 M in data set [1] (1e-005 M) was found to be 86%. Besides, the viability at 72 h, 1.25e-06 M in data set [1] (1.25e-006 M) amounted to 89%. The viability at 72 h, 1.56e-07 M in data set [1] (1.56e-007 M) is 88%. In data set [1] (2e-005 M), the viability at 72 h, 2e-05 M worked out at 99%. Further, the viability at 72 h, 2.5e-06 M in data set [1] (2.5e-006 M) amounted to 88%. Further, the viability at 72 h, 3.125e-07 M in data set [1] (3.125e-007 M) is 89%. The viability at 72 h, 5e-06 M in data set [1] (5e-006 M) came to 92%. Besides, the viability at 72 h, 6.25e-07 M in data set [1] (6.25e-007 M) turned out to be 91%. Also, the viability at 72 h, 7.8e-08 M in data set [1] (7.8e-008 M) is 88%. Also, the “% viable cells” value in the data set on CHO cells (1e-005 M) was 96%; in the data set on CHO cells (1.25e-006 M) it was 93%; in the data set on CHO cells (1.56e-007 M) it was 87% and 96%; in the data set with CHO cells (2e-005 M), 103% and 102%; with CHO cells (3.125e-007 M), 87% and 94%; in the data set on CHO cells (5e-006 M), 87%. The “% viable cells” value stood at 98% in the data set with CHO cells (6.25e-007 M) and 97% with CHO cells (7.8e-008 M).
